Laboratory results from paper PMC4169639 (BMC Biology, 2014).

Assays:
[1] = molecular target: T1, PCTP START domain (GSV-PCTP) (Homo sapiens, UniProt Q9UKL6); assay: IgG-bead immunoisolation from yeast lysate, LC-MS of bound metabolites; assay type: binding; conditions: endogenous yeast metabolite, enriched over GV control
T1 sequence (Q9UKL6 1-212 limits assumed): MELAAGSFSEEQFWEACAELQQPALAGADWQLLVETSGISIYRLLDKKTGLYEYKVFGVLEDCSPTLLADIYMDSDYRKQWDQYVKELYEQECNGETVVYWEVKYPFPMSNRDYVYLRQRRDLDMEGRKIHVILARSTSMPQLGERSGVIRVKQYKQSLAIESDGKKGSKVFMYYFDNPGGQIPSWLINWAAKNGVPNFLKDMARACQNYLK

[2] = molecular target: T2, StAR START domain (GSV-StAR) (Mus musculus, UniProt P51557); assay: as above; assay type: binding; conditions: endogenous yeast metabolite, enriched over GV control
T2 sequence (P51557 66-274 limits assumed): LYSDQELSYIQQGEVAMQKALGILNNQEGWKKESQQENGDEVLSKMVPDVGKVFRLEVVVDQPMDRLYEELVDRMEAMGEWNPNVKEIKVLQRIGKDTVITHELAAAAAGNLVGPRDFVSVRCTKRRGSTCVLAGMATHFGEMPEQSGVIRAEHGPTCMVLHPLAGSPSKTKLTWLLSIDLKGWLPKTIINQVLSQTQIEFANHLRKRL

| Compound | IgG-bead immunoisolation from yeast lysate, LC-MS of bound metabolites [1] | IgG-bead immunoisolation from yeast lysate, LC-MS of bound metabolites [2] |
| --- | --- | --- |
| CC(C)=CCC[C@@H](C)[C@H]1CC[C@@]2(C)C3=C(CC[C@]12C)[C@@]1(C)CC[C@H](O)C(C)(C)[C@@H]1CC3 [lanosterol] | several metabolites that were shared with StAR (e.g. lanosterol, squalene | lanosterol and squalene, were also significantly enriched for the START domain from StAR |
| CCCCC/C=C\C/C=C\CCCCCCCC(N)=O [linoleamide] | lipids including sphinganine, sphingosine, behenic acid and linoleamide | – |
| CC(C)=CCC/C(C)=C/CC/C(C)=C/CC/C=C(\C)CC/C=C(\C)CCC=C(C)C [squalene] | several metabolites that were shared with StAR (e.g. lanosterol, squalene | lanosterol and squalene, were also significantly enriched for the START domain from StAR |
